Tests used:
[1] = system: Murine embryonic mesenchymal stem cells (mMSCs) C3H10T1/2; assay: Inhibition of contractility in mMSCs; type: cell-based; details: for osteogenic marker expression: mMSCs on all substrates, 20 μM inhibitor; for Staining for pMLC / expression of stemness markers (Sca1, CD29): mMSCs; for Staining for pMLC: 10 and 20 μM inhibitor; for expression of stemness markers (Sca1, CD29): 15 days, basal conditions with inhibitor
ERK1/2 = ERK1/2 phosphorylation ELISA in HUVEC; type: cell-based, human; details: 30 min
Experimental: VEGF bound to substrates was assayed indirectly by measuring remaining VEGF in coating solution with a sandwich ELISA kit according to the manufacturer's instructions (DuoSetDY293B, R&D Systems). Levels of phosphorylation of ERK1/2 in HUVECs seeded onto functionalized surfaces were assessed after 30 min incubation using DuoSet ELISA kit following the manufacturer's instructions (DuoSetDYC1018B, R&D Systems). Human umbilical vein endothelial cells (HUVEC) (Cellworks) were maintained in HLVEC complete media (Cellworks). For any experiment, cells with not higher than 10 population doublings were used (usually corresponding up to P5). For network formation experiments, cell seeding density was optimized, and cells were eventually seeded at 10,000 cells/cm^2. Seeding was done on protein-functionalized and control polymer-coated substrates, and cells were left to adhere in a CO2 incubator at 37° C. After 16 h, medium was removed and replaced with fibrinogen solution (20 mg/ml) in HLVEC complete media, containing also 50 U/ml of thrombin and 1.2 mg/ml of aprotinin; to allow complete fibrinogen clotting, samples were placed in CO2 incubator for 1 h. After clotting, fibrin matrix was covered with 0.5 ml HLVEC complete media with 25 ng/ml of VEGF where required, and samples were kept at 37° C. for 6 day period, with media changed every second day.

VEGFR-2 = VEGFR-2 (Homo sapiens, UniProt P35968)
Chain of VEGFR-2 (P35968 20-1356): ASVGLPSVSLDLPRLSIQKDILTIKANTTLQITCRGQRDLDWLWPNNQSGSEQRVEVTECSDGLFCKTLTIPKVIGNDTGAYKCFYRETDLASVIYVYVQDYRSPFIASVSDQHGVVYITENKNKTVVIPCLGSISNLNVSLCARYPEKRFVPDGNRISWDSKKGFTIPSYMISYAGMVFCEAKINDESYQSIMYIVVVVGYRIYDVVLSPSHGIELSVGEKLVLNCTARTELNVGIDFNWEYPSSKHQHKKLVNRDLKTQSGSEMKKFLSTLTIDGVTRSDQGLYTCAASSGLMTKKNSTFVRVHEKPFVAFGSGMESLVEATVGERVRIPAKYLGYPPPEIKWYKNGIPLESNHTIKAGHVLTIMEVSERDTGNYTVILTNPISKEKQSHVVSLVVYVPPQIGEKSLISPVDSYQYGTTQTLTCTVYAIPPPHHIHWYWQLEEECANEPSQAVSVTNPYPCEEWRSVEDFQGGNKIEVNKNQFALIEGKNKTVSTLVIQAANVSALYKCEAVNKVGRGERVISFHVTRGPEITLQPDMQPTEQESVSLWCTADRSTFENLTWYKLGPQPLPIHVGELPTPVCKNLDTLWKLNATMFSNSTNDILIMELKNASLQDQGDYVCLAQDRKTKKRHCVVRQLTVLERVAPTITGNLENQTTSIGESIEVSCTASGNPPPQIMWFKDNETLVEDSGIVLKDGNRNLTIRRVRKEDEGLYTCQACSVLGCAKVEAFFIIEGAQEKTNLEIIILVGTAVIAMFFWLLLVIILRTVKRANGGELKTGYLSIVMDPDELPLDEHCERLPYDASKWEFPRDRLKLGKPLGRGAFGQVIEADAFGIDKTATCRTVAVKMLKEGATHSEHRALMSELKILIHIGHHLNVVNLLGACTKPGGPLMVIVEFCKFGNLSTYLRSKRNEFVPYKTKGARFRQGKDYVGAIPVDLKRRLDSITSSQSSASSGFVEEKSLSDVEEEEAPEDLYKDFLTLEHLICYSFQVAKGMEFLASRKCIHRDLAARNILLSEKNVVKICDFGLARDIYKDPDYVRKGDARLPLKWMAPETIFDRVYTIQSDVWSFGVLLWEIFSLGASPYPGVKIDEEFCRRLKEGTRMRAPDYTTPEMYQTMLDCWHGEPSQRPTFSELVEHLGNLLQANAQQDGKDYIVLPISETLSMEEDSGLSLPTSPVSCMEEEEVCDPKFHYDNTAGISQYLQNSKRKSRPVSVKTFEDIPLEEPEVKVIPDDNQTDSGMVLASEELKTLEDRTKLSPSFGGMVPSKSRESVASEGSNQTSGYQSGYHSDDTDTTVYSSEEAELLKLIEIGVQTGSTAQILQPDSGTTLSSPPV
Experimental: The most direct way to look at VEGF effect on downstream signaling was to assess its receptor phosphorylation. An immunofluorescence test for presence of phosphorylated VEGFR-2 was performed on standard HUVEC culture on tissue plastics, when cells were stimulated with 25 ng/ml of VEGF for two different time periods (2 min and 30 min). […] Therefore it was decided to assay phosphorylation of one of the downstream effectors, ERK1/2 which is activated via MAPK branch of GF receptor signaling.

[2] = system: Human bone marrow mesenchymal stem cells (hMSCs); assay: Alkaline phosphatase staining of hMSCs; type: cell-based; details: 28 days, noggin 50 ng/ml
Experimental: Human bone marrow mesenchymal stem cells (hMSCs) from Promocell were maintained in basal media (αMEM, 10% FBS, 1% P/S, 1% fungizone, 2 mM L-glutamine, 1 ng/ml FGF-2) at 37° C. with 5% CO2. Cells were seeded onto the materials at 10^4 cells/cm2 using seeding media (DMEM high glucose, 1% P/S, 1% FBS,) and media were changed twice a week. For all cultures the first 2 hours (initial cell adhesion) were in absence of serum and GF. Cells were used at passages P0-P3. Each experiment was performed in triplicate.
Cells were cultured on materials for 28 days. Noggin (50 ng/ml) was added in a set of samples and phosphate deposition was analysed by an Alkaline Phosphatase assay (Sigma, 86C-1KT). Cells were fixed with the fixative solution (citrate-acetone-formaldehide solution) at RT for 30 s. Afterwards, samples were stained with the alkaline-dye mixture and incubated at RT in darkness for 15 min. Samples were counterstained for 2 minutes with neutral red solution and rinsed in tap water.

[3] = target: Fibronectin (FN) from human plasma adsorbed on poly(ethyl acrylate) (PEA), organised into a fibrillar (nano)network (human) (UniProt P02751); assay: sandwich ELISA of BMP-2 released from FN-coated surfaces
[4] = target: Fibronectin (FN) from human plasma adsorbed on poly(ethyl acrylate) (PEA), organised into a fibrillar (nano)network (human) (UniProt P02751); assay: ELISA; BMP-2 adsorbed on FN-coated polymer implant tubes
[5] = target: Fibronectin (FN) from human plasma adsorbed on poly(ethyl acrylate) (PEA), organised into a fibrillar (nano)network (human) (UniProt P02751); assay: ELISA; BMP-2 adsorbed from 5 µg/ml on FN-coated polymer implant tubes

C[C@@H](N)[C@H]1CC[C@H](C(=O)Nc2ccncc2)CC1 [Y-27632]
osteogenic marker expression [1]: greatly reduced | Staining for pMLC [1]: reduced in a dose-dependent manner | expression of stemness markers (Sca1, CD29) [1]: strongly reduced

Cc1ccc2c(c1)C(=O)C1(O)CCN(c3ccccc3)C1=N2 (centres unmarked) [blebbistatin]
osteogenic marker expression [1]: greatly reduced | Staining for pMLC [1]: reduced in a dose-dependent manner | expression of stemness markers (Sca1, CD29) [1]: strongly reduced

VEGF
ERK1/2 phosphorylation, VEGF present in the medium (ERK1/2; PEA samples vs PEA sample without VEGF): did not show any difference | ERK1/2 phosphorylation, VEGF coated on PEA (ERK1/2; vs PEA without bound VEGF): higher level | phosphorylated VEGFR-2 after 2 min (VEGFR-2): present | phosphorylated VEGFR-2 after 30 min (VEGFR-2): no phosphorylation was detected

B1: noggin: used as BMP-2 inhibitor to prevent activity (50 ng/ml) (protein)
chain: QHYLHIRPAPSDNLPLVDLIEHPDPIFDPKEKDLNETLLRSLLGGHYDPGFMATSPPEDRPGGGGGAAGGAEDLAELDQLLRQRPSGAMPSEIKGLEFSEGLAQGKKQRLSKKLRRKLQMWLWSQTFCPVLYAWNDLGSRFWPRYVKVGSCFSKRSCSVPEGMVCKPSKSVHLTVLRWRCQRRGGQRCGWIPIQYPIISECKCSC
PEA driven FN/BMP-2 osteogenic differentiation (ALP) [2]: reduced

B2: BMP-2 (R&D Systems, 355-BM or 355-BM/CF) (ligand, UniProt P12643 283-396, looked up)
chain: QAKHKQRKRLKSSCKRHPLYVDFSDVGWNDWIVAPPGYHAFYCHGECPFPLADHLNSTNHAIVQTLVNSVNSKIPKACCVPTELSAISMLYLDENEKVVLKNYQDMVVEGCGCR
BMP-2 released after 14 days [3]: < 10% | amount of BMP-2 on the coated tube [4]: 15 ng | surface density [5]: 100 ng/cm^2

Source: patent publication US11872324B2, “Materials and methods for tissue regeneration” (The University Court of the University of Glasgow, priority 2015, dated 2024)
